Results on five molecules are retold here after ChEMBL document CHEMBL1127628, “A new arylpiperazine antipsychotic with high D2/D3/5-HT1A/alpha 1A-adrenergic affinity and a low potential for extrapyramidal effects” (J Med Chem, 1994).

Series [1] has as its target T1, Adrenergic receptor alpha-1 (Rattus norvegicus, UniProt P15823+P23944+P43140).
T1 sequence (P15823 whole entry): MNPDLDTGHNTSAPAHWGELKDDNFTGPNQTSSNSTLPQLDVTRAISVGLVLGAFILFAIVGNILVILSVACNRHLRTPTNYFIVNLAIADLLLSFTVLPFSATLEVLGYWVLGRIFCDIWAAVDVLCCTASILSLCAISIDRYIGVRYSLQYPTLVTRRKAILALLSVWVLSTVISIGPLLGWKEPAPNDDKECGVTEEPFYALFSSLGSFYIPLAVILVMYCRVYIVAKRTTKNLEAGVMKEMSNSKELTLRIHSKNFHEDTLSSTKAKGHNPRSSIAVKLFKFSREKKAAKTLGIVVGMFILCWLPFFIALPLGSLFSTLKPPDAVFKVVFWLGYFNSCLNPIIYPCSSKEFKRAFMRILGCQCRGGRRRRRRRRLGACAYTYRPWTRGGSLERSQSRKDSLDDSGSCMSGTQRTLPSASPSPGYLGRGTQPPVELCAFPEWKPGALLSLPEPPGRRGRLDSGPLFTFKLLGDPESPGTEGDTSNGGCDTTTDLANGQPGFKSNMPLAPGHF
T1 sequence (P23944 whole entry): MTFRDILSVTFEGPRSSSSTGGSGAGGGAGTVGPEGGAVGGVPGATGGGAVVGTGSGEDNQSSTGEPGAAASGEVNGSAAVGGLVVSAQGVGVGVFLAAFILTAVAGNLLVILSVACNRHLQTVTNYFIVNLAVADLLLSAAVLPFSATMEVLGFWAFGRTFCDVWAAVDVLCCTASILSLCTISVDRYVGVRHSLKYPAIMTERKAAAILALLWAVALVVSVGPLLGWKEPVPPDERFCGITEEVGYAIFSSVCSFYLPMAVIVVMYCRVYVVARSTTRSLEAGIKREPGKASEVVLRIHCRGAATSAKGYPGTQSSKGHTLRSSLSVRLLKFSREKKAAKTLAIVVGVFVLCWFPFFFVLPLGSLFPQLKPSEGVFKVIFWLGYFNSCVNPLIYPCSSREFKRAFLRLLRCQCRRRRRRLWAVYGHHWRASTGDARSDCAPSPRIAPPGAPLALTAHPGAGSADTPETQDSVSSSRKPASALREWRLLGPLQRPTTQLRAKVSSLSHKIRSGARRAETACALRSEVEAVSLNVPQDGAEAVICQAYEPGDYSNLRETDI
T1 sequence (P43140 whole entry): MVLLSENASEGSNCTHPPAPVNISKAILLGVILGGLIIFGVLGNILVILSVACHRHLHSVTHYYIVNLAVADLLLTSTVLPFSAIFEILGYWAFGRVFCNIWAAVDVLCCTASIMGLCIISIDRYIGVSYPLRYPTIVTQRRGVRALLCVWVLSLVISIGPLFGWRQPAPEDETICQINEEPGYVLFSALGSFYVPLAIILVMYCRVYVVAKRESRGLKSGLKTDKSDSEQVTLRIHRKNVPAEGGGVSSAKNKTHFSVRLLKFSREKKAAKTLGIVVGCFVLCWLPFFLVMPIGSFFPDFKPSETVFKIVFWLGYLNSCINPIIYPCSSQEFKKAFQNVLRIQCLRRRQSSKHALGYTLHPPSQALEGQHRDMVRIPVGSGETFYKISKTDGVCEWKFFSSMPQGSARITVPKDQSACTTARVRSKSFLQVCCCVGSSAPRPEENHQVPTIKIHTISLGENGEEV
Put plainly: Binding affinity towards alpha-1 adrenergic receptors in rat brain synaptosomal preparations. The class given is tissue-based.

The target in series [2] is D(2) dopamine receptor (Rattus norvegicus, UniProt P61169). In words: Binding affinity towards dopamine D2 receptors in rat brain synaptosomal preparations. The class given is tissue-based.
D(2) dopamine receptor, sequence (P61169 whole entry): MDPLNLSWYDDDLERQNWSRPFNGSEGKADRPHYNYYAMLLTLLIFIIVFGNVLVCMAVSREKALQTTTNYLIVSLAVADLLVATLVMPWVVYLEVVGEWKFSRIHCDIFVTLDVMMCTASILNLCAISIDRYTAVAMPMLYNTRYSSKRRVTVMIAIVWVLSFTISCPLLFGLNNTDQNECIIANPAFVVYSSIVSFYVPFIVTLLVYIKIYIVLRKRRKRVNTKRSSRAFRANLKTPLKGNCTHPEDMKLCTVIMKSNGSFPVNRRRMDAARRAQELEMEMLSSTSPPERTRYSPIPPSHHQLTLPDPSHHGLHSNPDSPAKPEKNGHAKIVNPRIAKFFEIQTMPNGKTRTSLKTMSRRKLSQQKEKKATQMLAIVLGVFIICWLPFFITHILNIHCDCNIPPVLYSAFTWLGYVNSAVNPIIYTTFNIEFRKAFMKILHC
Series [3] has as its target T2, 5-hydroxytryptamine receptor 1A (Rattus norvegicus, UniProt P19327).
T2 sequence (P19327 whole entry): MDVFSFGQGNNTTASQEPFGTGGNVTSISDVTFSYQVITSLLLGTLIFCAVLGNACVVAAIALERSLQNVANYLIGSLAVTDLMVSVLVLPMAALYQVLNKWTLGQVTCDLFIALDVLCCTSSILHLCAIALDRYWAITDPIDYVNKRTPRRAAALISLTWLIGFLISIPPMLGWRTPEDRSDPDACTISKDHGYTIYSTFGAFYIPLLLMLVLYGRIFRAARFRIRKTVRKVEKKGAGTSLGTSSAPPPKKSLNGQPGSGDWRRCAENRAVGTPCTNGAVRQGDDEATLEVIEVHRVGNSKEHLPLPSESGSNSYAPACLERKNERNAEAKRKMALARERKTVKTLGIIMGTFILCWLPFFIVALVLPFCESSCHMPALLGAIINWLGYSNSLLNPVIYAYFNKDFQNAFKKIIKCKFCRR
Description: Binding affinity towards 5-hydroxytryptamine 1A receptor of rat brain synaptosomal preparations

For series [4], the target named is T3, Adrenergic receptor alpha-2 (Rattus norvegicus, UniProt P22086+P19328+P22909).
T3 sequence (P22086 whole entry): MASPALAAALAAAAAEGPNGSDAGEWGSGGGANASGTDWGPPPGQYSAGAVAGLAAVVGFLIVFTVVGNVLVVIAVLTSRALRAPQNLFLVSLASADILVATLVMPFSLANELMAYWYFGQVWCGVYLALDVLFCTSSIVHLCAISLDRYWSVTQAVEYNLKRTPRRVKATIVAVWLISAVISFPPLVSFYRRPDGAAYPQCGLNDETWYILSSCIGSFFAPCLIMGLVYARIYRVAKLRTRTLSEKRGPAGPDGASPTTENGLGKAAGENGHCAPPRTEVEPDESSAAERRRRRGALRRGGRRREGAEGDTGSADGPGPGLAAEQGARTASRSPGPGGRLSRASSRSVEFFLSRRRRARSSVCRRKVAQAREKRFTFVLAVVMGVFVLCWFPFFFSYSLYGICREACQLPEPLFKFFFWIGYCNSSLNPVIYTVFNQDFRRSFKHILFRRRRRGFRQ
T3 sequence (P19328 whole entry): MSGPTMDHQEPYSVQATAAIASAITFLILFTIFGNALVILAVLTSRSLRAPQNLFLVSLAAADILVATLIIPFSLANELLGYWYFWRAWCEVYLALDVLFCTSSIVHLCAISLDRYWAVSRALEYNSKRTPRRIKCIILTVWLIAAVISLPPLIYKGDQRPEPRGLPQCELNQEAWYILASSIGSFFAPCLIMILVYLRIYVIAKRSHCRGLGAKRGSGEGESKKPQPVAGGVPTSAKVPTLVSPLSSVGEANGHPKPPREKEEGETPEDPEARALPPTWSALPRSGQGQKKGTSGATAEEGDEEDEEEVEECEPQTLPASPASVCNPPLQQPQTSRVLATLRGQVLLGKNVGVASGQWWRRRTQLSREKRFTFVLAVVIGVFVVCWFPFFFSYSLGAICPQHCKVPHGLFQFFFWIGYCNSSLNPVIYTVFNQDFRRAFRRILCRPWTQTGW
T3 sequence (P22909 whole entry): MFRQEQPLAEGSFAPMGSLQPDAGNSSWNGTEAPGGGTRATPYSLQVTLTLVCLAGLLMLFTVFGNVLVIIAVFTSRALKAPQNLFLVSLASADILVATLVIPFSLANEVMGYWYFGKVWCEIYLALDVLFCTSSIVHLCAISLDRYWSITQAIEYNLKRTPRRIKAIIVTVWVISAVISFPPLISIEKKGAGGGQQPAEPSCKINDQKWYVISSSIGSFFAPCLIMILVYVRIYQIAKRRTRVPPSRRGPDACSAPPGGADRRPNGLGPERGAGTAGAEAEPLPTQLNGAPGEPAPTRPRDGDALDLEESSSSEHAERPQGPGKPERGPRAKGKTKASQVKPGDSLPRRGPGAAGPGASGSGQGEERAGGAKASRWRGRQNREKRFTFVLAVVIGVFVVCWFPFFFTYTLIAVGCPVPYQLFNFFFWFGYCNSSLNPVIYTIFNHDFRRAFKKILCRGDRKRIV
Description: Binding affinity towards alpha-2 adrenergic receptors in rat brain synaptosomal preparations

The species named for series [5] is Rattus norvegicus. Put plainly: The compound was evaluated for the conditioned avoidance response data (CAR) in rat intra peritoneally. The class given is functional.
Series [6] addresses 5-hydroxytryptamine receptor 1B (Rattus norvegicus, UniProt P28564). In words: Binding affinity towards 5-hydroxytryptamine 1B receptor.
In series [7] the target is Serotonin 2 (5-HT2) receptor (Rattus norvegicus, UniProt P30994+P08909+P14842). Put plainly: Binding affinity towards 5-hydroxytryptamine 2 receptor. The class given is protein assay.
Series [8] is described as follows: Partition coefficient (logP). The class given is physicochemical. The conditions noted are these: octanol/water.
The subject of series [9] is Canis familiaris. In words: The compound is evaluated for inhibition of apomorphine induced emesis in dogs after peroral administration. The class given is functional, Canis lupus familiaris.
For series [10], the target named is D(1A) dopamine receptor (Homo sapiens, UniProt P21728). Put plainly: Binding affinity towards dopamine receptor D1 (human clone).
D(1A) dopamine receptor, sequence (P21728 whole entry): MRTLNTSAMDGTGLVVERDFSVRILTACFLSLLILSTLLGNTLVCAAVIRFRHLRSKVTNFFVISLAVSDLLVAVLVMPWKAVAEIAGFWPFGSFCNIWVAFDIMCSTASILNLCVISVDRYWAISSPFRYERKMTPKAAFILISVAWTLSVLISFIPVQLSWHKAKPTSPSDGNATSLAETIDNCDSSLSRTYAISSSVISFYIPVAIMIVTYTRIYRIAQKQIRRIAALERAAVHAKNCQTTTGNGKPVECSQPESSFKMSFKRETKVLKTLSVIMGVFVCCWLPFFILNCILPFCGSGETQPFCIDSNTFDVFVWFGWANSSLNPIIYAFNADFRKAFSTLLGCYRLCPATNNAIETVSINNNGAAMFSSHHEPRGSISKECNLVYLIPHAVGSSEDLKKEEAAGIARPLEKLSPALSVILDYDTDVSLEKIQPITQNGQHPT
The target of series [11] is D(1B) dopamine receptor (Rattus norvegicus, UniProt P25115). Put plainly: Binding affinity towards Dopamine receptor D5 (rat clone).
D(1B) dopamine receptor, sequence (P25115 whole entry): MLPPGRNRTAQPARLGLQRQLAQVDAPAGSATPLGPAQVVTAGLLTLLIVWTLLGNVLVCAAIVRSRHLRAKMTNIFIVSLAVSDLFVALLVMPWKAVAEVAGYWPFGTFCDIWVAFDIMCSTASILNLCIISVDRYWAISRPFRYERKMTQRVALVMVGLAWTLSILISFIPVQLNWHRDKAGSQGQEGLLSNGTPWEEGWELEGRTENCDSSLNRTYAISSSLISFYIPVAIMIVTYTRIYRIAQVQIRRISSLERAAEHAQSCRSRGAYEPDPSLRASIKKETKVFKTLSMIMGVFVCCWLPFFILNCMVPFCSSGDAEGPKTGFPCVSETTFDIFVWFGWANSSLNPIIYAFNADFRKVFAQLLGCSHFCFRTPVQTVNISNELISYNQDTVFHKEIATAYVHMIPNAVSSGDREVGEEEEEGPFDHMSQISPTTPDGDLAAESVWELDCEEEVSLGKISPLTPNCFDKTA
For series [12], the target named is D(3) dopamine receptor (Rattus norvegicus, UniProt P19020). In words: Binding affinity towards baculovirus expressed rat dopamine D3 receptors.
D(3) dopamine receptor, sequence (P19020 whole entry): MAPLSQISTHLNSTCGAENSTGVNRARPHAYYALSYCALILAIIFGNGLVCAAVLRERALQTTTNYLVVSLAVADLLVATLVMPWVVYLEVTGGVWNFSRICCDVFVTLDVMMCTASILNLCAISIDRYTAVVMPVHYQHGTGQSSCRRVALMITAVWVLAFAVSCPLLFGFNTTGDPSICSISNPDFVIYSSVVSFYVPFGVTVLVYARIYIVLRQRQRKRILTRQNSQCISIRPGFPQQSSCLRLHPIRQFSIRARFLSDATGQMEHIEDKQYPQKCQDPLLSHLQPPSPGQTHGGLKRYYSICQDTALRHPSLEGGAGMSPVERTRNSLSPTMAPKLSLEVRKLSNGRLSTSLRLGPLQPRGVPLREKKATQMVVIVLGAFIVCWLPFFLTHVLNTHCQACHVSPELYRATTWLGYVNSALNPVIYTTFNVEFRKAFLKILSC
The subject of series [13] is Mus musculus. Put plainly: The compound is evaluated for inhibition of apomorphine induced climbing behavior in mice after peroral administration. The class given is functional. The following applies: po.
The target in series [14] is Muscarinic acetylcholine receptor. Put plainly: Binding affinity towards muscarinic receptors. The class given is protein assay, Rattus norvegicus.
The subject of series [15] is Rattus norvegicus. In words: The compound is evaluated for inhibition of 8-OH-DPAT induced reciprocal forepaw treading in reserpinized rats after intraperitoneal administration. The class given is functional. The following applies: ip.
The test system of series [16] is Rattus norvegicus. Put plainly: The compound was evaluated for the conditioned avoidance response data (CAR) in rat intravenous administration at 0.66 mg/kg concentration. The class given is functional.
The test system of series [17] is Rattus norvegicus. Put plainly: The compound was evaluated for the conditioned avoidance response data (CAR) in rat peroral administration. The conditions noted are these: po. The class given is functional.
For series [18], the system named is Rattus norvegicus. Put plainly: The compound is evaluated for induction of catalepsy in rats at a dose of 100 mg/kg after peroral administration. The class given is functional. The conditions noted are these: route oral.
Series [19] concerns the target Sigma non-opioid intracellular receptor 1 (Rattus norvegicus, UniProt Q9R0C9). Put plainly: Binding affinity towards sigma receptors.

pKi: −log10 of the molar value. A value given as a limit tells only on which side of the number the result lay.

5-hydroxytryptamine receptor 1B, sequence (P28564 whole entry): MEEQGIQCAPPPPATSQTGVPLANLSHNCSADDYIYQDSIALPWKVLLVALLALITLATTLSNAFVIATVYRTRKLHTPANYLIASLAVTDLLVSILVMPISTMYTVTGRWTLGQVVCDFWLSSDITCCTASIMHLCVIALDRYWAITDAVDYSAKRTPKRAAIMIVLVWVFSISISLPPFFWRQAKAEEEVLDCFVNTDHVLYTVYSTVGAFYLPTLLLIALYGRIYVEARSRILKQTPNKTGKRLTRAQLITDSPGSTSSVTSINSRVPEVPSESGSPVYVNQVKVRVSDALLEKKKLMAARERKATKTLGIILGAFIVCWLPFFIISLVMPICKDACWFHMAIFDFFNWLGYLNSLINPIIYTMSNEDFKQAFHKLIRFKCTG
Sigma non-opioid intracellular receptor 1, sequence (Q9R0C9 whole entry): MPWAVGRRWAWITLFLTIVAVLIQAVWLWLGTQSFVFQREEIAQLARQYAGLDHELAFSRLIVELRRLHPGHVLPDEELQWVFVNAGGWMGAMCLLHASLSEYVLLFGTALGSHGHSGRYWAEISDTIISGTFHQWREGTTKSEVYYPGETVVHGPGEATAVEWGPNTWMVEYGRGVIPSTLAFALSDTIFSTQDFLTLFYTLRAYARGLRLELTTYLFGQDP

As usually defined, the Ki is a dissociation constant, usually derived from enzyme kinetics or from competition with a known ligand. The pKi is the negative decadic logarithm of the Ki, by convention in mol/L. `CC(C)Oc1ccccc1N1CCN(Cc2ccccc2C(=O)N2CCCCC2)CC1`: the Ki in series [1] was 0.22 µM; in series [4], 0.016 µM. In addition, the pKi in series [2] is 7.43; in series [3], 8.17.
Consider `CC(C)Oc1ccccc1N1CCN(Cc2ccc(C(=O)N3CCCCC3)cc2)CC1`, for which the Ki in series [1] amounted to 0.003 µM. Besides, the pKi in series [2] was 7.00; in series [3] it was 6.25.
Consider `CC(C)Oc1ccccc1N1CCN(Cc2ccc(CN3CCCCC3=O)cc2)CC1`, for which the Ki in series [4] turned out to be 1 µM. This counts as single-digit micromolar.
For orientation: ED50 means the midpoint of the dose-response relation. Read a high ED50 as a need for a large dose. In [5], `CN1CCN(C2=Nc3cc(Cl)ccc3Nc3ccccc32)CC1` [CLOZAPINE] displayed an ED50 of 4 mg/kg.
The term logP denotes a log measure of how a compound divides between an organic and an aqueous phase. Read a high logP as higher lipophilicity. As to `CC(C)Oc1ccccc1N1CCN(Cc2cccc(C(=O)N3CCCCC3)c2)CC1` [MAZAPERTINE], the pKi was 5.54 in [6]; less than 5.30 in series [10]; less than 5.30 in series [11]; 8.74 in [12]; less than 5.30 in [19]. Also, the Ki in series [7] is 0.165 µM; in series [14] it was more than 5 µM; in series [4] it was 0.017 µM. This molecule yielded a logP in [8] of 4. Further, the ED50 in series [9] worked out at 0.038 mg/kg; in series [13] it was 0.6 mg/kg; in series [15], 5.24 mg/kg; in series [16] it was 0.23 mg/kg; in series [17], 13.8 mg/kg. In addition, the Catalepsy in [18] was 30%.
